Values joined by “and” are separate entries in the source; they are usually repeats but may differ in a detail not shown here. Identical values can stand only once. After the bases stand the sugars from the 5' end (letter, count) and the backbone: PS all phosphorothioate, else s phosphorothioate and o phosphodiester by linkage. Methylation of C is not given here. e = 2'-O-(2-methoxyethyl) (MOE); k = constrained ethyl (cEt); d = 2'-deoxy (DNA)
Tests used:
KRAS = conditions: ASO
IRF5 = conditions: ASO, KARPAS-229, 4 µM

Sequence	target mRNA inhibition (KRAS; A431, 2 µM)	also measured
ATTGTGCTGAGCTTGA (sugars kddddddddddkekek, PS)	34%	–
AAAACAAATGCTAATA (sugars k3 d10 k3, PS)	12%	–
AAATGCTAATAATTTA (sugars k3 d10 k3, PS)	13%	–
GGAGTCTTTATAGTAA (sugars kkkddddddddkekek, PS)	0%	–
TATCTTGTTGAGCTAT (sugars k3 d10 k3, PS)	33%	–
TAAAACAAATGCTAAT (sugars k3 d10 k3, PS)	5%	–
GATTTGTCAGCAGGAC (sugars k3 d10 k3, PS)	47%	target mRNA inhibition (KRAS; A431, 0.037 µM): 68%; target mRNA inhibition (KRAS; A431, 5 µM): 96% and 93%; target mRNA inhibition (KRAS; NCI-H460, 0.037 µM): 60.1%
CCAGTATTAACACAGA (sugars k3 d10 k3, PS)	37%	–
TACTTATGCAGAGAAA (sugars k3 d10 k3, PS)	0%	–
CAGTGTGACTCAGTTA (sugars kkddddddddkekekk, PS)	63%	target mRNA inhibition (KRAS; A431, 0.185 µM): 0%; target mRNA inhibition (KRAS; A431, 0.556 µM): 36%; target mRNA inhibition (KRAS; A431, 1.667 µM): 58%; target mRNA inhibition (KRAS; A431, 5 µM): 67%
ATGCTGTGAAACTCTC (sugars k3 d9 k3 e1, PS)	37%	–
ACCATTCAAAGTTCAC (sugars kddddddddddkekek, PS)	18%	–
TTAGTGATTAGGTCAA (sugars kddddddddddkekek, PS)	12%	–
TAGTTTCACATAGCAA (sugars k3 d10 k3, PS)	51%	–
CCAGTGTTAAGAGAAC (sugars kkddddddddkekekk, PS)	53%	–
TGGTGTAACATAGGTT (sugars kkdddddddddkekek, PS)	62%	target mRNA inhibition (KRAS; A431, 0.185 µM): 21%; target mRNA inhibition (KRAS; A431, 0.556 µM): 45%; target mRNA inhibition (KRAS; A431, 1.667 µM): 66%; target mRNA inhibition (KRAS; A431, 5 µM): 83%
ATCAACTGCATGCACC (sugars k3 d10 k3, PS)	42%	–
GAGTCTTTATAGTAAT (sugars kddddddddddkekek, PS)	11%	–
AATTAGTGATTAGGTC (sugars k3 d10 k3, PS)	32%	–
GAGGCAAGATGACACT (sugars k3 d10 k3, PS)	0%	–
GATTTGTCAGCAGGAC (sugars kdddddddddkekeke, PS)	32%	–
TAATTACTTATGCAGA (sugars k3 d10 k3, PS)	17%	–
GGTGTAACATAGGTTA (sugars kddddddddddkekek, PS)	64%	target mRNA inhibition (KRAS; A431, 0.185 µM): 15%; target mRNA inhibition (KRAS; A431, 0.556 µM): 39%; target mRNA inhibition (KRAS; A431, 1.667 µM): 62%; target mRNA inhibition (KRAS; A431, 5 µM): 80%

Sequence	target mRNA inhibition (KRAS; A431, 2 µM)	also measured
ATAGTTTCCATTGCCT (sugars k3 d10 k3, PS)	50% and 65%	target mRNA inhibition (KRAS; A431, 1.667 µM): 64% and 45%; target mRNA inhibition (KRAS; A431, 5 µM): 75% and 70%
TGCTGTGAAACTCTCT (sugars kkdddddddddkdkdk, PS)	26%	–
TGATTTGTCAGCAGGA (sugars kkdddddddddkdkdk, PS)	15%	–
GTCTATTCATACCAGG (sugars k3 d10 k3, PS)	60%	–
AGTATTAACACAGAAG (sugars k3 d10 k3, PS)	27%	–
AAATCTGAATTAGTCT (sugars k3 d10 k3, PS)	25%	–
ATTGTTTAAAAAAAAA (sugars k3 d10 k3, PS)	0%	–
AGTGTGACTCAGTTAA (sugars kkkddddddddkekek, PS)	29%	–
TGATTTGTCAGCAGGA (sugars kdddddddddkekeke, PS)	32%	–
AGTGATTAGGTCAAAT (sugars k3 d10 k3, PS)	23%	–
ATGCTGTGAAACTCTC (sugars kdddddddddkekeke, PS)	24%	–
CTCTTGATTTGTCAGC (sugars k3 d10 k3, PS)	–	target mRNA inhibition (KRAS; A431, 0.037 µM): 66%; target mRNA inhibition (KRAS; A431, 0.125 µM): 64% and 57%; target mRNA inhibition (KRAS; NCI-H460, 0.037 µM): 55.4%
TCCAGTGATACTTTCA (sugars kkddddddddkekekk, PS)	24%	–
TCTTATGGTTAGGGGA (sugars k3 d10 k3, PS)	8%	–
GTCCAGTGATACTTTC (sugars kkkddddddddkdkdk, PS)	30%	–
GCAGTGTGACTCAGTT (sugars k3 d10 k3, PS)	48%	–
GATTGTGCTGAGCTTG (sugars kkddddddddddkeke, PS)	19%	–
TTAGTGATTAGGTCAA (sugars k3 d10 k3, PS)	59% and 51% and 52%	target mRNA inhibition (KRAS; A431, 0.185 µM): 32%; target mRNA inhibition (KRAS; A431, 0.556 µM): 56%; target mRNA inhibition (KRAS; A431, 1.667 µM): 68%; target mRNA inhibition (KRAS; A431, 5 µM): 82%
TTGATTTGTCAGCAGG (sugars kddddddddddkekek, PS)	17%	–
AATGCTAATAATTTAG (sugars k3 d10 k3, PS)	0%	–
CATGTAAATATAGCCC (sugars k3 d10 k3, PS)	5%	–
ATTAATCCATTTATGT (sugars k3 d10 k3, PS)	3%	–
GGTGTAACATAGGTTA (sugars kdddddddddkekeke, PS)	57%	target mRNA inhibition (KRAS; A431, 0.185 µM): 1%; target mRNA inhibition (KRAS; A431, 0.556 µM): 35%; target mRNA inhibition (KRAS; A431, 1.667 µM): 56%; target mRNA inhibition (KRAS; A431, 5 µM): 71%; target mRNA inhibition (KRAS; NCI-H460, 0.037 µM): 52.2%

Sequence	target mRNA inhibition (KRAS; A431, 2 µM)	also measured
TCCAGTGATACTTTCA (sugars kkdddddddddkekek, PS)	37%	–
TGCTGTGAAACTCTCT (sugars k3 d10 k3, PS)	27%	–
CTATTCATACCAGGTT (sugars k3 d10 k3, PS)	33%	–
TGGTGTAACATAGGTT (sugars kkkddddddddkekek, PS)	67%	target mRNA inhibition (KRAS; A431, 0.185 µM): 31%; target mRNA inhibition (KRAS; A431, 0.556 µM): 53%; target mRNA inhibition (KRAS; A431, 1.667 µM): 79%; target mRNA inhibition (KRAS; A431, 5 µM): 82%
GCTAAAACAAATGCTA (sugars k3 d10 k3, PS)	33%	–
AAGATGGTGTAACATA (sugars k3 d10 k3, PS)	30%	–
GCAATGTTAATTTAAC (sugars k3 d10 k3, PS)	17%	–
CTTGATTTGTCAGCAG (sugars kkdddddddddkekek, PS)	49%	–
GGTGAATATCTTCAAA (sugars k3 d10 k3, PS)	28%	–
GTCCAGTGATACTTTC (sugars kdddddddddkekeke, PS)	20%	–
TGTGAAACTCTCTATG (sugars k3 d10 k3, PS)	4%	–
CAGTATTAACACAGAA (sugars k3 d10 k3, PS)	7%	–
CCAGTGTTAAGAGAAC (sugars kkkddddddddkekek, PS)	37%	–
CCAGTGATACTTTCAC (sugars kddddddddddkekek, PS)	0%	–
ACCAGTGTTAAGAGAA (sugars k3 d9 k3 e1, PS)	44%	–
CTATAATAATCCCCAT (sugars k3 d10 k3, PS)	6%	–
TTAGTGATTAGGTCAA (sugars kkkdddddddddkeke, PS)	32%	–
GACTAATAGCAGTGGA (sugars k3 d10 k3, PS)	52% and 62%	–
GCAAGATGACACTAAT (sugars k3 d10 k3, PS)	30%	–
CATTTATGTGACTAGA (sugars k3 d10 k3, PS)	56%	–
ATTTCTGATGTGACTC (sugars k3 d10 k3, PS)	49%	–
GTGTAACATAGGTTAA (sugars k3 d10 k3, PS)	30%	–
GCTAATAATTTAGTGT (sugars k3 d10 k3, PS)	18%	–

Sequence	target mRNA inhibition (KRAS; A431, 2 µM)	also measured
ACCATTCAAAGTTCAC (sugars kkkdddddddddkeke, PS)	30%	–
GTGTTTATGCAATGTT (sugars kkdddddddddkekek, PS)	65%	target mRNA inhibition (KRAS; A431, 0.185 µM): 22%; target mRNA inhibition (KRAS; A431, 0.556 µM): 54%; target mRNA inhibition (KRAS; A431, 1.667 µM): 77%; target mRNA inhibition (KRAS; A431, 5 µM): 83%
CTTATGCAGAGAAAAC (sugars k3 d10 k3, PS)	8%	–
AGTGTTTATGCAATGT (sugars k3 d10 k3, PS)	69% and 50%	target mRNA inhibition (KRAS; A431, 0.185 µM): 27% and 9%; target mRNA inhibition (KRAS; A431, 0.556 µM): 46% and 21%; target mRNA inhibition (KRAS; A431, 1.667 µM): 65% and 46%; target mRNA inhibition (KRAS; A431, 5 µM): 83% and 67%
ATTTGTCAGCAGGACC (sugars k3 d10 k3, PS)	35%	–
AATCTTTTAATGTCAC (sugars k3 d10 k3, PS)	44%	–
AAAATTAATGTCTTGG (sugars k3 d10 k3, PS)	12%	–
AGGAGTCTTTATAGTA (sugars kkddddddddddkeke, PS)	40%	–
ACCAGTGTTAAGAGAA (sugars kddddddddddkekek, PS)	44%	–
AGGAGTCTTTATAGTA (sugars kkkddddddddkdkdk, PS)	30%	–
ACCAGTGTTAAGAGAA (sugars kkddddddddddkeke, PS)	42%	–
TTTTGTGACTGTATTA (sugars k3 d10 k3, PS)	–	target mRNA inhibition (IRF5): 2%
GCATTCCATATACACA (sugars kkkddddddddkekek, PS)	–	target mRNA inhibition (IRF5): 0%
CCACTGTGTACCCCAT (sugars k2 d8 e4 k2, PS)	–	target mRNA inhibition (IRF5): 44%
CACATCTCCACATCAG (sugars kkkddddddddkekek, PS)	–	target mRNA inhibition (IRF5): 43%
AGGTTCTTGGACTCTC (sugars k3 d10 k3, PS)	–	target mRNA inhibition (IRF5): 0%
GGTCTTGACCTCCCGC (sugars kkdddddddddkekek, PS)	–	target mRNA inhibition (IRF5): 7%
ATCTGATATGATACCT (sugars k3 d10 k3, PS)	–	target mRNA inhibition (IRF5): 36%
GGTCTGGCCCTTTTGG (sugars kkkdddddddddkeke, PS)	–	target mRNA inhibition (IRF5): 17%
GTTATCTCCGTCCTGG (sugars kkddddddddddkeke, PS)	–	target mRNA inhibition (IRF5): 0%
CGGTCTTTGAGGTCTG (sugars k3 d10 k3, PS)	–	target mRNA inhibition (IRF5): 32%
CATTCTATGCCTTTTA (sugars k3 d10 k3, PS)	–	target mRNA inhibition (IRF5): 24%
CTGTCACATCTCCACA (sugars k2 d8 e4 k2, PS)	–	target mRNA inhibition (IRF5): 11%

— the OligoGym collection
